US10231956B2, “3-(1H-pyrrolo[3,2-C]pyridin-2-YL)-1 H-pyrazolo[4,3-B]pyridines and therapeutic uses thereof” (Samumed, LLC, priority 2015, dated 2019)

Legend:
Format in all cases: cell-based
IL-6 = IL-6 inhibition in LPS-stimulated THP-1 cells (HTRF); details: Homo sapiens, LPS 500 ng/mL, 22 hours, IL6 HTRF
Experimental: Human Monocyte Cell Culture: Human monocyte cell line (THP-1 cells; Catalog # TIB-202, ATCC, Manassas, Va.) were cultured in Roswell Park Memorial Institute (RPMI) 1640 Medium (Catalog #21870-100, Buffalo, N.Y.) with 1% L-glutamine, 1% HEPES, 1% Sodium Pyruvate, 2% Sodium Bicarbonate supplemented with 100 units/mL penicillin, 50 μg/mL streptomycin, 2-mercaptoethanol (0.05 mM) [basal medium] and 10% fetal bovine serum (Catalog #16140089, Life Technologies, Carlsbad, Calif.) at 37° C. and 5% CO2.
Compound Screening: THP-1 cells were cultured in basal media with 1% FBS for 24 hours before the start of the assay. Each compound was dissolved in DMSO as a 10 mM stock and used to prepare compound source plates. Serial dilution (1:3, 10-point dose-response curves starting from 1 μM) and compound transfer was performed using the ECHO 550 (Labcyte, Sunnyvale, Calif.) into 384-well white low volume assay plates (Greiner Bio-One) with appropriate DMSO backfill for a final DMSO concentration of 0.1%. THP-1 cells were plated at 5000 cells/well in the 384-well plates and incubated at 37° C. for 2 h. 500 ng/mL of LPS was added after 2 hours and cells were incubated for another 22 hours at 37° C. Plates were spun in a centrifuge for 1 minute at 10,000 rpm and a mixture of anti-IL6 XL665, and anti-IL6 Cryptate diluted in reconstitution buffer (Cisbio Inc.) was added to each well. Following incubation for 3 hrs at room temperature, Homogeneous Time-Resolved Fluorescence (HTRF) was measured using the Envision (Perkin Elmer) at 665 nm and […]. The ratio of fluorescence at 665 nm to 620 nm was used as a readout for IL6 quantification. All samples were processed in duplicate. Readings were normalized to DMSO treated cells and normalized activities were utilized for EC50 calculations using the dose-response log (inhibitor) vs. response-variable slope (four parameters) nonlinear regression feature available in GraphPad Prism 5.0 (or Dotmatics). For EC50 of >10 μM, the percent inhibition at 10 μM is provided.

[1] = test system: Wnt activity (Sp5-Luc reporter, SW480 colon carcinoma cells); experiment: Sp5-Luc reporter gene screening assay for Wnt activity in SW480 cells; details: Homo sapiens, luminescence, overnight incubation
Excerpt: The screening assay for Wnt activity is described as follows. Reporter cell lines can be generated by stably transducing cancer cell lines (e.g., colon cancer) or primary cells (e.g., IEC-6 intestinal cells) with a lentiviral construct that includes a Wnt-responsive promoter driving expression of the firefly luciferase gene.
SW480 colon carcinoma cells were transduced with a lentiviral vector expressing luciferase with a human Sp5 promoter consisting of a sequence of eight TCF/LEF binding sites. SW480 cells stably expressing the Sp5-Luc reporter gene and a hygromycin resistance gene were selected by treatment with 150 μg/mL of hygromycin for 7 days. These stably transduced SW480 cells were expanded in cell culture and used for all further screening activities. Each compound was dissolved in DMSO as a 10 mM stock and used to prepare compound source plates. Serial dilution (1:3, 10-point dose-response curves starting from 10 μM) and compound transfer was performed using the ECHO 550 (Labcyte, Sunnyvale, Calif.) into 384-well white solid bottom assay plates (Greiner Bio-One) with appropriate DMSO backfill for a final DMSO concentration of 0.1%. For Sp5-Luc reporter gene assays, the cells were plated at 4,000 cells/well in 384-well plates with medium containing 1% fetal bovine serum and incubated overnight at 37° C. and 5% CO2. Following incubation, 20 μl of BrightGlo luminescence reagent (Promega) was added to each well of the 384-well assay plates. The plates were placed on an orbital shaker for 2 min and then luminescence was quantified using the Envision (Perkin Elmer) plate reader. Readings were normalized to DMSO only treated cells, and normalized activities were utilized for EC50 calculations using the dose-response log (inhibitor) vs. response-variable slope (four parameters) nonlinear regression feature available in GraphPad Prism 5.0 (or Dotmatics). For EC50 of >10 μM, the percent inhibition at 10 μM is provided.

SW480 colon cancer cells = experiment: Cell viability assay (CellTiter-Blue) in SW480 colon cancer cells; details: Homo sapiens, 96 h, four days, CellTiter-Blue
Experimental: Representative compounds were screened using the following assay procedure to assess the effect on cell viability as described below.
Each compound was dissolved in DMSO as a 10 mM stock and used to prepare compound source plates. Serial dilution (1:3, 8-point dose-response curves from 10 μM to 0.0045 μM) and compound transfer was performed using the ECHO 550 (Labcyte, Sunnyvale, Calif.) into 96-well clear bottom, black-walled plates (Corning-Costar).
Approximately 2×10^3 SW480 colon cancer cells were seeded into each well and allowed to incubate in the presence or absence of compound for four days at 37° C./5% CO2. Eight replicates of DMSO-treated cells served as controls and cells treated with compound were performed in duplicate.
After incubation, 20 μL of CellTiter-Blue (Promega) was added to each well allowed to incubate for approximately 3 hours. This reagent was a buffered solution which contains resazurin, metabolically active cells were able to reduce rezarurin (blue) into resorufin (pink) which was highly fluorescent. This measured fluorescence was used as a readout for cell viability.
After incubation, the plates were read at Ex 560 nm Em 590 nm (Cytation 3, BioTek). Dose-response curves were generated and EC50 concentration values were calculated using non-linear regression curve fit in the GraphPad Prism (San Diego, Calif.) or Dotmatics' Studies Software (Bishops Stortford, UK). For EC50 of >10 μM, the percent inhibition at 10 μM is provided.

[2] = test system: primary human fibroblasts derived from IPF patients (LL29 cells); experiment: Inhibition of fibrotic process: αSMA staining in TGF-β1 treated LL29 fibroblasts; details: Fibroblast, 96 h, TGF-β1 20 ng/mL, 4 days, % cells positive for αSMA
Excerpt: Representative compounds were screened using primary human fibroblasts (derived from IPF patients) treated with TGF-β1 to determine their ability to inhibit the fibrotic process.
Human Fibroblast Cell Culture: Primary human fibroblasts derived from IPF patients (LL29 cells) [^1Xiaoqiu Liu, et. al., “Fibrotic Lung Fibroblasts Show Blunted Inhibition by cAMP Due to Deficient cAMP Response Element-Binding Protein Phosphorylation”, Journal of Pharmacology and Experimental Therapeutics (2005), 315(2), 678-687; ^2Watts, K. L., et. al., “RhoA signaling modulates cyclin D1 expression in human lung fibroblasts; implications for idiopathic pulmonary fibrosis”, Respiratory Research (2006), 7(1), 88] were obtained from American Type Culture Collection (ATCC) and expanded in F12 medium supplemented with 15% Fetal Bovine Serum and Penicillin/Streptomycin.
Compound Screening: Each compound was dissolved in DMSO as a 10 mM stock and used to prepare compound source plates. Serial dilution (1:2, 11-point dose-response curves from […]) and compound transfer was performed using the ECHO 550 (Labcyte, Sunnyvale, Calif.) into 384-well clear bottom assay plates (Greiner Bio-One) with appropriate DMSO backfill for a final DMSO concentration of 0.1%. LL29 cells are plated at 1,500 cells/well in 80 μL/well F12 medium supplemented with 1% Fetal Bovine Serum. One hour after addition of the cells, TGF-β1 (Peprotech; 20 ng/mL) was added to the plates to induce fibrosis (ref. 1 and 2 above). Wells treated with TGF-β1 and containing DMSO were used as controls. Cells were incubated at 37° C. and 5% CO2 for 4 days. Following incubation for 4 days, SYTOX green nucleic acid stain (Life Technologies [Thermo Fisher Scientific]) was added to the wells at a final concentration of 1 μM and incubated at room temperature for 30 min. Cells were then fixed using 4% formaldehyde (Electron Microscopy Sciences), washed 3 times with PBS followed by blocking and permeabilization using 3% Bovine Serum Albumin (BSA; Sigma) and 0.3% Triton X-100 (Sigma) in PBS. Cells were then stained with antibody specific to α-smooth muscle actin (αSMA; Abcam) (ref. 1 and 2 above) in 3% Bovine Serum Albumin (BSA; Sigma) and 0.3% Triton X-100 (Sigma) in PBS, and incubated overnight at 4° C. Cells were then washed 3 times with PBS, followed by incubation with Alexa Flor-647 conjugated secondary antibody (Life Technologies [Thermo Fisher Scientific]) and DAPI at room temperature for 1 hour. Cells were then washed 3 times with PBS and plates were sealed for imaging. αSMA staining was imaged by excitation at 630 nm and emission at 665 nm and quantified using the Compartmental Analysis program on the CellInsight CX5 (Thermo Scientific). Dead or apoptotic cells were excluded from analysis based on positive SYTOX green staining. % of total cells positive for αSMA were counted in each well and normalized to the average of 11 wells treated with TGF-β1 on the same plate using Dotmatics' Studies Software. The normalized averages (fold change over untreated) of 3 replicate wells for each compound concentration were used to create dose-responses curves and EC50 values were calculated using non-linear regression curve fit in the Dotmatics' Studies Software. For EC50 of >10 μM, the percent inhibition at 10 μM is provided.

| SMILES | EC50 (IL-6) [nM] | EC50 [1] [nM] | EC50 (SW480 colon cancer cells) [nM] | EC50 [2] [nM] |
| --- | --- | --- | --- | --- |
| Fc1ccc(-c2nccc3[nH]c(-c4n[nH]c5ccc(-c6ccccn6)nc45)cc23)cc1 [Compound 56, 3-(4-(4-Fluorophenyl)-1H-pyrrolo[3,2-c]pyridin-2-yl)-5-(pyridin-2-yl)-1H-pyrazolo[4,3-b]pyridine] | 7700 | 3470 | 2590 | 1310 |
| c1cc(-c2nccc3[nH]c(-c4n[nH]c5ccc(-c6cncc(CNCC7CCCC7)c6)nc45)cc23)ccn1 [Compound 137, 1-Cyclopentyl-N-((5-(3-(4-(pyridin-4-yl)-1H-pyrrolo[3,2-c]pyridin-2-yl)-1H-pyrazolo[4,3-b]pyridin-5-yl)pyridin-3-yl)methyl)methanamine] | 9200 | 4490 | 1660 | 3240 |
| c1cc2[nH]c(-c3n[nH]c4ccc(-c5cncc(CNCC6CCCC6)c5)nc34)cc2c(-c2ccoc2)n1 [Compound 333, 1-Cyclopentyl-N-((5-(3-(4-(furan-3-yl)-1H-pyrrolo[3,2-c]pyridin-2-yl)-1H-pyrazolo[4,3-b]pyridin-5-yl)pyridin-3-yl)methyl)methanamine] | 9070 | 3710 | 1190 | 714 |
| Cc1ccncc1-c1ccc2[nH]nc(-c3cc4c(-c5cccs5)nccc4[nH]3)c2n1 [Compound 341, 5-(4-Methylpyridin-3-yl)-3-(4-(thiophen-2-yl)-1H-pyrrolo[3,2-c]pyridin-2-yl)-1H-pyrazolo[4,3-b]pyridine] | 5380 | 1100 | 577 | 621 |
| c1csc(-c2nccc3[nH]c(-c4n[nH]c5ccc(-c6cncnc6)nc45)cc23)c1 [Compound 363, 5-(Pyrimidin-5-yl)-3-(4-(thiophen-2-yl)-1H-pyrrolo[3,2-c]pyridin-2-yl)-1H-pyrazolo[4,3-b]pyridine] | 2750 | 2680 | 1520 | 529 |
| Fc1cccc(-c2nccc3[nH]c(-c4n[nH]c5ccc(C6CCNCC6)nc45)cc23)c1 [Compound 505, 3-(4-(3-Fluorophenyl)-1H-pyrrolo[3,2-c]pyridin-2-yl)-5-(piperidin-4-yl)-1H-pyrazolo[4,3-b]pyridine] | 1520 | 8320 | 4120 | 2710 |
| c1cc2[nH]c(-c3n[nH]c4ccc(-c5cncc(OC6CCCCC6)c5)nc34)cc2c(-c2ccoc2)n1 [Compound 687, 5-(5-(Cyclohexyloxy)pyridin-3-yl)-3-(4-(furan-3-yl)-1H-pyrrolo[3,2-c]pyridin-2-yl)-1H-pyrazolo[4,3-b]pyridine] | 9020 | 1010 | 555 | 452 |

Further lines, with some results ahead:

| EC50 (IL-6) [nM] | EC50 [1] [nM] | EC50 (SW480 colon cancer cells) [nM] | SMILES | EC50 [2] [nM] |
| --- | --- | --- | --- | --- |
| 118 | 4860 | 2620 | CC(C)(C)C(=O)Nc1cncc(-c2ccc3[nH]nc(-c4cc5c(-c6cccc(F)c6)nccc5[nH]4)c3n2)c1 [Compound 8, N-(5-(3-(4-(3-Fluorophenyl)-1H-pyrrolo[3,2-c]pyridin-2-yl)-1H-pyrazolo [4,3-b]pyridin-5-yl)pyridin-3-yl)pivalamide] | 1080 |
| 88 | 716 | 737 | O=C(Nc1cncc(-c2ccc3[nH]nc(-c4cc5c(-c6cccnc6)nccc5[nH]4)c3n2)c1)C1CCCC1 [Compound 106, N-(5-(3-(4-(Pyridin-3-yl)-1H-pyrrolo[3,2-c]pyridin-2-yl)-1H-pyrazolo[4,3-b]pyridin-5-yl)pyridin-3-yl)cyclopentanecarboxamide] | 1320 |
| 418 | 3510 | 3570 | CN1CCN(c2nccc3[nH]c(-c4n[nH]c5ccc(-c6cncc(NC(=O)CC(C)(C)C)c6)nc45)cc23)CC1 [Compound 240, 3,3-Dimethyl-N-(5-(3-(4-(4-methylpiperazin-1l-yl)-1H-pyrrolo[3,2-c]pyridin-2-yl)-1H-pyrazolo[4,3-b]pyridin-5-yl)pyridin-3-yl)butanamide] | 1010 |
